Measured values taken from patent US8628781B2, “Prevention and treatment of cast nephropathy” (The UAB Research Foundation, priority 2010, dated 2014).
Entries after “also recorded” stand apart in the source; their conditions may differ. Bridges are numbered along the chain shown (N, C = ends). Where no end group is shown, it is not given here.

Assays:
[1] = molecular target: T1, Tamm-Horsfall protein (Homo sapiens, UniProt P07911); assay: Competitive ELISA: peptide inhibition of Tamm-Horsfall protein binding to immunoglobulin light chains bound in microtiter wells; details: for inhibition of binding between Tamm-Horsfall protein and human light chains (in words): six human light chains (λ2, 3 and 5 and κ3, 6, and 7), FIG. 7; for inhibition of binding of Tamm-Horsfall protein to immunoglobulin light chain (in words): uncyclized and cyclized peptide, FIG. 5
Description: Peptides known to react with the Tamm-Horsfall protein in the yeast two-hybrid assay were synthesized, cyclized, and used as inhibitors in a competitive ELISA experiment. The peptides were cyclized by adding cysteine residues to the amino and carboxyl-terminal portions of the peptides and generating an intramolecular disulfide bridge (FIG. 4). Cyclization facilitates formation of the loop structure in solution. Both the linear and cyclized peptides inhibited the binding of the Tamm-Horsfall protein to the immunoglobulin light chains bound in the wells of the microtiter plate, but the efficiency of inhibition was increased by cyclization of the peptide inhibitor.
(§1) Mutation of the CDR3 sequence to disrupt the loop structure by substituting amino acid residues with phenyalanine confirmed that the secondary structure was an important determinant of binding (FIG. 6). The inhibitory capability of cyclized experimental (CLSADSSGSYLYVC (SEQ ID NO:32)) and control (CLSAFSFGFYLYVC (SEQ ID NO:33)) peptides were then compared in a competitive ELISA assay.

[2] = system: Tamm-Horsfall protein; assay: Yeast two-hybrid assay of CDR3 inserts ligated between Framework 2 and Framework 3 of LKPBLL53; type: binding, human; details: FIG. 6, N=7
Description: Addition of the framework regions permits each CDR3, which was ligated into the construct using Sma1 and BamH1, to achieve proper folding into a loop structure. […] The CDR3 domain of ITPBLL2 differed from the CDR3 domain of ITPBLL1 (SEQ ID NO:28) by only two amino acids (underlined), which were sufficient to inhibit formation of a loop structure, and, thus, binding to the Tamm-Horsfall protein. […] N=6 experiments for each group.
Among those CDR3 domains that were predicted to form a loop, affinity for the Tamm-Horsfall protein was strong and correlated with that observed using the intact VL from the parent light chain.
as §1

[3] = system: rat model of cast nephropathy; assay: Rat model of cast nephropathy by administration of human kappa and lambda light chains; type: in vivo; details: rats given human kappa and lambda light chains
Experimental: The competitor peptides, SEQ ID NO:1 and SEQ ID NO:2, have been used in a rat model of cast nephropathy, which employed administration of human kappa and lambda light chains. […] Rats were injected intraperitoneally with 40 mg of cyclized competitor peptide, SEQ ID NO:2 (pep), or vehicle alone (veh) just prior to intraperitoneal injection of 100 mg of human kappa or lambda light chain purified from patients who had multiple myeloma and kidney damage. On the following day, rats also received an additional injection of competitor peptides, SEQ ID NO:1 (20 mg) or vehicle. Rats were examined three days after the initial injection.

[4] = molecular target: T1, Tamm-Horsfall protein; assay: Competition studies of synthetic CDR3 peptide with light chains from myeloma patients for binding to Tamm-Horsfall protein; details: six different immunoglobulin light chains from patients with myeloma and cast nephropathy
Description: The yeast two-hybrid system was employed to determine the site on the immunoglobulin light chain that interacted with the Tamm-Horsfall protein. Using 248- and 787-base pair fragments of the Tamm-Horsfall protein, which contained the previously described immunoglobulin light chain-binding domain, the interaction with unique immunoglobulin light chains that represented a variety of the known isotypes of κ and λ immunoglobulin light chains was examined. […] While this was considered an advance, this peptide was not considered to bind avidly enough to the Tamm-Horsfall protein to serve as an effective inhibitor in vivo.

## CLSADSSGSYLYVC (disulfide 1-14 (inferred)) [cyclized experimental peptide]
[1]
  inhibition of binding between Tamm-Horsfall protein and human light chains (in words): completely prevented the binding; also recorded: very efficient inhibitor

## CLSAFSFGFYLYVC (disulfide 1-14 (inferred)) [cyclized control peptide, reference compound]
[1]
  inhibition of binding between Tamm-Horsfall protein and human light chains (in words): did not effectively inhibit binding

## LSADSSGSYLYV
[2]
  interaction of wildtype and phenylalanine-mutated CDR3 sequence with Tamm-Horsfall protein (in words): interacted strongly

## LSADSSGSYLYVF [peptide 2, LSADSSGSYLYVF]
[3]
  effect on cast formation, acute renal failure and renal function (in words): prevented cast formation and acute renal failure and improved renal function
[1]
  inhibition of binding of Tamm-Horsfall protein to immunoglobulin light chain (in words): inhibit binding

## LSAFSFGFYLYV [ITPBLL86 CDR3 mutated with three phenylalanines]
[2]
  interaction of wildtype and phenylalanine-mutated CDR3 sequence with Tamm-Horsfall protein (in words): none of the mutated sequences interacted

## LSAFSFGSYLYV [ITPBLL86 CDR3 mutated with two phenylalanines]
[2]
  interaction of wildtype and phenylalanine-mutated CDR3 sequence with Tamm-Horsfall protein (in words): none of the mutated sequences interacted

## LSAFSSGSYLYV [ITPBLL86 CDR3 mutated with one phenylalanine]
[2]
  interaction of wildtype and phenylalanine-mutated CDR3 sequence with Tamm-Horsfall protein (in words): none of the mutated sequences interacted

## MQGTHWPPLT [synthetic peptide identical to the CDR3 region of SSH23]
[4]
  competition with light chains for binding to Tamm-Horsfall protein (in words): effectively competed

## QSYDNTLSGSYVF [peptide 1, QSYDNTLSGSYVF]
[3]
  effect on cast formation, acute renal failure and renal function (in words): prevented cast formation and acute renal failure and improved renal function
[1]
  inhibition of binding of Tamm-Horsfall protein to immunoglobulin light chain (in words): inhibit binding
